Laboratory results as given in publication PMC8833476, “Short-Term Effects of Temperature and Thyrotropin-Releasing Hormone Stimulation on Adrenocorticotropin Stability in Horses” (Animals : an Open Access Journal from MDPI, 2022).

Tests used:
[1] = human blood samples at room temperature; cited from earlier work
[2] = delaying centrifugation of horse blood by 1 h; cited from earlier work
[3] = Short-term stability of immunoreactive ACTH in whole blood stored 1 h at 4, 20, 30, 40 or 70 °C; type: in vitro ADME, horse; details: for Mean change of immunoreactive ACTH concentration after 1 h: whole blood 1 h at 20 °C vs 4 °C; for ACTH concentration as percentage of the reference sample (4 °C = 100%), range over horses: equine EDTA whole blood
Protocol: For horses that underwent TRH stimulation, blood was collected 30 min after receiving 1 mg of TRH intravenously (Sigma-Aldrich Pty Ltd. (subsidiary of Merck), North Ryde BC, New South Wales, Australia). Blood was sampled between 7 and 8 am. All procedures were approved by the University of Queensland Animal Ethics Committee, approval number SVS/474/17, 22nd December 2017.
Samples were taken to the laboratory within 1 h of collection. They were then stored as whole blood either in a temperature-monitored refrigerator (4 °C), in a temperature-controlled room (20 °C), or in incubators (30, 40, or 70 °C) for 1 h. Samples were then centrifuged at 3500× g at 4 °C for 10 min. The plasma was separated and analyzed within 2 h of collection from the horse. […] Due to the necessity of analyzing all samples within a 2-h window from collection, and limitations on the speed of the analyzer, the 15 horses were sampled over a 4-day period. The samples from each horse were run using the same kit.
The reference sample was defined as the sample stored at 4 °C.

[4] = room temperature (21 °C), analyzed prior to 8 h; mostly PPID-negative horses; cited from earlier work
Text: In contrast, our study found t ...

Row | Mean change of immunoreactive ACTH concentration after 1 h ([3]; PPID horses) | Bland–Altman mean bias of ACTH concentration, 4 versus 20 °C ([3]; equine EDTA whole blood stored 1 h at 20 °C vs 4 °C reference, then centrifuged, plasma immunoreactive ACTH by Immulite 1000 chemiluminescent assay, 15 horses) | Bland–Altman mean bias of ACTH concentration, 4 versus 30 °C ([3]; equine EDTA whole blood stored 1 h at 30 °C vs 4 °C reference, Immulite 1000 chemiluminescent assay, 15 horses) | Bland–Altman mean bias of ACTH concentration, 4 versus 40 °C ([3]; equine EDTA whole blood stored 1 h at 40 °C vs 4 °C reference, Immulite 1000 chemiluminescent assay, 15 horses) | Bland–Altman mean bias of ACTH concentration, 4 versus 70 °C ([3]; equine EDTA whole blood stored 1 h at 70 °C vs 4 °C reference, Immulite 1000 chemiluminescent assay, only 9 of 15 samples analysable) | ACTH concentration as percentage of the reference sample (4 °C = 100%), range over horses ([3]; 1 h at 20 °C, Immulite 1000 chemiluminescent assay, 15 horses (PPID and non-PPID, basal and post-TRH), not significant) | ACTH concentration as percentage of the reference sample (4 °C = 100%), range over horses ([3]; 1 h at 30 °C, Immulite 1000, 15 horses, not significant) | ACTH concentration as percentage of the reference sample (4 °C = 100%), range over horses ([3]; 1 h at 40 °C, Immulite 1000, 15 horses, not significant) | ACTH concentration as percentage of the reference sample (4 °C = 100%), range over horses ([3]; 1 h at 70 °C, Immulite 1000, 9 of 15 samples analysable (solidification), p = 0.001) | Mean change of immunoreactive ACTH concentration after 1 h ([3]; non-PPID horses) | Measured ACTH concentration, reference sample ([3]; one non-PPID horse, post-TRH stimulation, whole blood 1 h at 4 °C, single horse) | Measured ACTH concentration after storage ([3]; one non-PPID horse, post-TRH stimulation, whole blood 1 h at 20 °C, single horse) | Measured ACTH concentration after storage ([3]; one non-PPID horse, post-TRH stimulation, whole blood 1 h at 40 °C, single horse) | Deviation of measured ACTH concentration above the same sample stored at 4 °C ([3]; whole blood 1 h at 20 °C, maximum over horses) | Substance | Time at room temperature prior to centrifugation at which the measured ACTH concentration is altered [1] | Mean reduction in the measured ACTH concentration [2] | Difference between samples kept at room temperature and at 4 °C [4]
1 | – | – | – | – | – | – | – | – | – | – | – | – | – | – | human ACTH: endogenous human ACTH, reported as highly unstable due to proteolytic degradation (SYSMEHFRWGKPVGKKRRPVKVYPNGAEDESAEAFPLEF; Corticotropin; UniProt P01189 138-176, looked up) | ≥ 4 h | – | –
2 | 5% | -2.8 pg/mL | -1.38 pg/mL | -0.16 pg/mL | 10.1 pg/mL | 84.3 to 122.1% | 89.4 to 115.6% | 86.5 to 116.3% | 72 to 94.4% | 12% | 60.9 pg/mL | 69.1 pg/mL | 70.8 pg/mL | up to 22% | adrenocorticotropic hormone [ACTH] | – | 11.6 pg/mL | no difference
